The values that follow come from US20230302159A1, “COMPOUNDS AND COMPOSITIONS FOR TUMOR DETECTION AND SURGICAL GUIDANCE” (Cornell University, priority 2020, published 2023).

Where “and” joins values, the source holds several entries; their conditions need not be identical. Identical values can stand only once. Entries after “also recorded” stand apart in the source; their conditions may differ.

The subject of series [1] is SKOV3/GFP-Luc disseminated peritoneal tumors. Briefly: In vivo fluorescence imaging of disseminated peritoneal tumors after IP administration. The arrangement: species or system mice. As to the method:
(§1) Tumor models of subcutaneous implants and peritoneal implants. All animal procedures were carried out in compliance with the approved animal protocols and guidelines of the Institutional Animal Care and Use Committee at Weil Cornell Medical College. Mice (female, SCID Hairless Outbred Mouse) were purchased from Charles River (Wilmington, MA). To establish the subcutaneous implants, a suspension of OVASAHO/RFP-Luc cells (5.0×10^6) or SKOV3/GFP-Luc cells (5.0×10^6) in 100 μL PBS was inoculated into each flank of the female nude mice on both sides. After two weeks, the tumor implants grew to around 5 mm in size and were used for the spray experiment. To establish the peritoneal implants, SKOV3/GFP-Luc cells (5.0×10^6) suspended in […] were injected into the abdominal cavities of the female nude mice. After two weeks, the tumor growth was examined with an in vivo bioluminescence imaging system followed by peritoneal injection of D-luciferin potassium solution (200 μL, 15 mg/mL) for 10 min. Generally, mice bearing multiple disseminated peritoneal implants of 5 mm size in diameter were used for the experiment.
In vivo fluorescence imaging of disseminated peritoneal tumors. […] The fluorescence images were captured for the whole cavity under both the GFP and Cy7 channels. […] Regions of interest (ROI, n=6, and average area=0.28±0.1 cm^2) within the tumor nodules and in the adjacent normal areas in the peritoneal cavity were drawn and calculated for tumor-to-normal tissue ratio.
(§2) Histology. To gain knowledge about the CypH-11 distribution in tumors after administration via spray and i.p. injection, the tumors were excised and analyzed. […] The slides were imaged first with a fluorescence microscope (EVOS, Thermofisher Scientific, Waltham, MA) and were subsequently stained with hematoxylin and eosin Y solution (H&E) to assess their histologic alterations under a light microscope.

The nature of series [2]: Relative quantum yield measurement against ICG standard. The conditions noted are these: at pH 4.0, PBS. The series is classed as physicochemical. As to the method: Spectroscopic analysis. Stock solutions (1 mM in DMSO) of CypH-11, CypH-1, and Cy7 were stored at a −30° C. freezer and used for the following experiments. For the pKa measurement, the respective compound was diluted in 20 mM phosphate-buffered solution (PBS, pH 2.0-11.0) to a final concentration of 2 μM. The fluorescence intensity (λex=725 nm and λcm=785 nm) was measured on a plate reader (Tecan Infinite M1000 Pro), and the fluorescence images were recorded with a fluorescence imaging system (Bruker In-vivo F Pro). For the quantum yield measurement, indocyanine green (ICG, Φ=1.2% in water) was used as the standard compound. The respective compound (0.4, 0.8, 1.2, 1.6, and 2.0 μM) in PBS solutions (pH=4.0 and pH=7.4) was measured using a Cary 60 UV-Vis spectrophotometer and Cary Eclipse fluorescence spectrophotometer (Agilent). The slope of fluorescence vs absorbance was compared with that of ICG to calculate the relative quantum yield.

In series [3] the test system is SKOV3/GFP-Luc subcutaneous tumors. Put plainly: In vivo fluorescence imaging of subcutaneous tumors by spraying, SKOV3/GFP-Luc model. Further details: species or system mice. The conditions noted are these: for signal to background ratio: 2 μM. As to the method: as §1
In vivo fluorescence imaging of subcutaneous tumors. Two subcutaneous tumor models (OVASAHO/RFP-Luc and SKOV3/GFP-Luc) were used to compare the imaging capability of CypH-11, CypH-1, and Cy7. Mice bearing the subcutaneous implants were anesthetized in an induction chamber using 2% isoflurane, and anesthesia was maintained with 1.5-2.0% isoflurane via a nose cone. Sterile surgical tools were used to remove skin around the tumor. The mice images were captured using an IVIS SpectrumCT System from PerkinElmer (Waltham, MA). OVASAHO/RFP-Luc and SKOV3/GFP-Luc tumors were captured under an RFP channel (Excitation: 520-550 nm and Emission: 570-590 nm) and a GFP channel (Excitation: 450-480 nm and Emission: 510 530 nm), respectively. A Cy7 channel (Excitation: 730-760 nm and Emission: 790-810 nm) was applied to evaluate the fluorescence generated by CypH-11, CypH-1, and Cy7. After skin removal, the tumor area and the background fluorescence under the Cy7 channel were measured first. Solutions of CypH-11, CypH-1, and Cy7 (2 μM each) were sprayed on the surgical area, and the fluorescence of the Cy7 channel was measured continuously at each time point (1, 3, 5, 7, 10, and 15 min). Ten, five, and three OVASAHO tumors were used to evaluate CypH-11, CypH-1, and Cy7, respectively. Six SKOV3 tumors were used to evaluate CypH-11. To evaluate the tumor-to-normal tissue ratio, the whole tumor regions and the adjacent open-skin areas were drawn, and their fluorescence intensity was acquired by the IVIS software. Tumor-to-normal tissue ratio value was calculated as the average fluorescence intensity of the tumor divided by that of the normal area. Also, tumor-bearing mice were euthanized by carbon dioxide inhalation or a high dose of isoflurane (5%). The subcutaneous tumors and the adjacent muscles were then extracted, and CypH-11 (2 μM) was sprayed onto them. Images were subsequently captured under GFP/RFP/Cy7 channels.
as §2

With `CC(C)N(C)c1ccc(OC2=C(/C=C/C3=[N+](C(C)C)c4ccccc4C3(C)C)CCC/C2=C\C=C2\N(C(C)C)c3ccccc3C2(C)C)cc1.[I-]` [CypH-11], the “tumor signal higher than the background of the peritoneum, liver, and intestine” value in series [1] (1 h post IP, 200 μL 2 μM in PBS) is 3- to 4 fold. The “size of smallest tumors detected” value in series [1] (1 h post IP, no washing) was 1 mm and < 1 mm. In addition, in series [1] (IP, within an hour, histology), the “NIR signal depth in tumor after IP injection” value is recorded as 6-7 layers of cells. The “quantum yield (Φ)” value in series [2] was found to be 3.3%. Also, the figures for the “signal to background ratio” value in series [3] (1 min after spray), in series [3] (5 min after spray) and in series [3] (10 min after spray) were 1.3, 1.4 and 1.6, respectively. Besides, in series [3] (sprayed, 15 min, histology), the “NIR signal depth in tumor after spray” value was 2-3 layers of cells. Moreover, in series [3] (tumor and muscle excised, held 20 min, then sprayed), the “CypH-11 signal when sprayed ex vivo on excised 20-min old dead tissues” value was “no NIR signal could be detected; also recorded: No CypH-11 signal in tumor or muscle was observed”.
